From paper PMC6974402 (Nature, 2019)

Tests used:
[1] = target: T1, SAP1 (Anopheles gambiae, UniProt Q7Q3U7); assay: 1-NPN fluorescence displacement; assay type: binding
T1 sequence (Q7Q3U7 18-127): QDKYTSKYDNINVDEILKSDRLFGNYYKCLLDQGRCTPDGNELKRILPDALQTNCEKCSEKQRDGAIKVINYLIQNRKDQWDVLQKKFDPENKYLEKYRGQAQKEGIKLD

[2] = target: T2, SAP3 (Anopheles gambiae, UniProt Q6H8Z2); assay: 1-NPN fluorescence displacement; assay type: binding
T2 sequence (Q6H8Z2 18-126): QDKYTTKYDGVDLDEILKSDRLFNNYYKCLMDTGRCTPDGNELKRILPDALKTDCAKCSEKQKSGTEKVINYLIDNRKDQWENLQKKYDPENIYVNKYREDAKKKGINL

CC1(C)[C@H](C(=O)O[C@H](C#N)c2cccc(Oc3ccccc3)c2)[C@@H]1C=C(Br)Br [deltamethrin]
IC50 [1]: > 10 µM | IC50 [2]: > 10 µM

CC1(C)C(C=C(Cl)Cl)C1C(=O)OC(C#N)c1cccc(Oc2ccccc2)c1 (stereo not drawn) [α-cypermethrin]
IC50 [1]: 9.02 µM
